Experimental findings from the supplement of paper PMC10307832 are described below.

Assay in all cases: relative viability (nuclei count vs DMSO), 5 days (fraction); higher = more cells survive
Compound in assay [1]: COC1=C(C=C(C=C1)C2=CC3=NC=CN3C(=N2)NC4=C(C=CC=N4)C(=O)N)OC [BAY61-3606] + CC(=O)Nc1cccc(-n2c(=O)n(C3CC3)c(=O)c3c(Nc4ccc(I)cc4F)n(C)c(=O)c(C)c32)c1 [Trametinib] (partner 0.02 µM)
A digest of the protocol: (§1)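 Medians of duplicate plates are given as relative viability. That measure is the nuclei count in treated wells divided by the count in vehicle wells. Counts were taken on 4× images of lung cancer cell lines in 1536-well plates, 5 days after pin-tool dosing the day after seeding with one drug alone or a fixed anchor-drug dose plus five library-drug doses (not always all listed) in √10 steps.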

Compound in assay [2]: COc1cccc2c1C(=O)c1c(O)c3c(c(O)c1C2=O)C[C@@](O)(C(=O)CO)C[C@@H]3O[C@H]1C[C@H](N)[C@H](O)[C@H](C)O1 [Doxorubicin] + CC(C)C[C@H](NC(=O)[C@H](Cc1ccccc1)NC(=O)c1cnccn1)B(O)O [Bortezomib] (partner 0.002 µM)
A digest of the protocol:
as §1

Compound in assay [3]: COc1cccc2c1C(=O)c1c(O)c3c(c(O)c1C2=O)C[C@@](O)(C(=O)CO)C[C@@H]3O[C@H]1C[C@H](N)[C@H](O)[C@H](C)O1 [Doxorubicin] + CCNC(=O)c1noc(-c2cc(C(C)C)c(O)cc2O)c1-c1ccc(CN2CCOCC2)cc1 [Luminespib] (partner 0.01 µM)
A digest of the protocol:
as §1

Compound in assay [4]: COc1cccc2c1C(=O)c1c(O)c3c(c(O)c1C2=O)C[C@@](O)(C(=O)CO)C[C@@H]3O[C@H]1C[C@H](N)[C@H](O)[C@H](C)O1 [Doxorubicin] + Nc1nc2[nH]cc(CCc3ccc(C(=O)N[C@@H](CCC(=O)O)C(=O)O)cc3)c2c(=O)[nH]1 [Pemetrexed] (partner 0.2 µM)
A digest of the protocol: as §1

For UMC-11, the relative viability was determined as 0.823 in assay [1] (first compound 0.02 µM); 0.63 in assay [1] (first compound 0.06325 µM); 0.509 in assay [1] (first compound 0.2 µM); 0.759 in assay [1] (first compound 0.6325 µM); 0.688 in assay [1] (first compound 2 µM); 0.667 in assay [2] (first compound 0.001 µM). Besides, the relative viability in assay [2] (first compound 0.003162 µM) amounted to 0.543; in assay [2] (first compound 0.01 µM), 0.668; in assay [2] (first compound 0.03162 µM), 0.379; in assay [2] (first compound 0.1 µM), 0.436; in assay [3] (first compound 0.001 µM) it was 0.998; in assay [3] (first compound 0.003162 µM) it was 1.12. Also, the relative viability in assay [3] (first compound 0.01 µM) is 0.943; in assay [3] (first compound 0.03162 µM), 0.642; in assay [3] (first compound 0.1 µM) it was 0.601; in assay [4] (first compound 0.001 µM) it was 0.831; in assay [4] (first compound 0.003162 µM), 0.901; in assay [4] (first compound 0.01 µM), 0.823. Also, the relative viability in assay [4] (first compound 0.03162 µM) came to 0.645; in assay [4] (first compound 0.1 µM), 0.636.
